Data: ChEMBL document CHEMBL1201862, “PubChem BioAssay data set” (2004)
Each block holds one compound with its values, some of them ahead of it. Calls of active or inactive are those of the source.

Key:
[1] = biological target: 1-phosphatidylinositol 4,5-bisphosphate phosphodiesterase gamma-1 (Homo sapiens, UniProt P19174); assay: Counterscreen for inhibitors of phospholipase C isozymes (PLC-B3): Fluorescence-based biochemical high throughput dose response assay to identify inhibitors of phospholipase C isozymes (PLC-gamma1).
[2] = biological target: 1-phosphatidylinositol 4,5-bisphosphate phosphodiesterase beta-3 (Homo sapiens, UniProt Q01970); assay: Fluorescence-based biochemical high throughput dose response assay to identify inhibitors of phospholipase C isozymes (PLC-B3).
[3] = CellTiter-Glo luminescence survival assay, SW480 colon tumor line, concentration-response curve, half-maximal inhibitory concentration (AID 1117338); format: functional
[4] = RKO cell viability reduction, dose response, CellTiter-Glo luminescence (AID 1117322); format: functional
[5] = cytotoxicity toward HCT116 cells – cell-based, CellTiter-Glo luminescence, IC50, dose response (AID 1117332); format: functional; conditions: HCT-116
[6] = SNU-C1 cell viability reduction, dose response, CellTiter-Glo luminescence (AID 1117323); format: functional, cell-based
[7] = cytotoxicity toward Colo320 cells – cell-based, CellTiter-Glo luminescence, IC50, dose response (AID 1117334); format: functional; conditions: COLO 320
[8] = cytotoxicity toward HT-29 cells – cell-based, CellTiter-Glo luminescence, IC50, dose response (AID 1117330); format: functional
[9] = Reduced DLD-1 viability, concentration-response, CellTiter-Glo luminescence (AID 1117352); format: functional
[10] = HCT116 cell viability decrease, GSK3B pretreatment – CellTiter-Glo, IC50, dose response (AID 1117339); format: functional; conditions: HCT-116
[11] = HIV-1 Vif–A3G interaction blockers – biochemical, TR-FRET, GST-Vif 1-94, biotin-A3G peptide, dose response retest, primary screen (AID 1117319); format: functional;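 further: TR-FRET signal of purified GST-Vif binding a biotinylated A3G peptide; inhibitors lower the FRET signal by blocking Vif and A3G binding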
[12] = biological target: Neurotensin receptor type 1 (Homo sapiens, UniProt P30989); format: functional;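 further: Image-based confirmatory dose-response assay measuring agonist activity at NTR1; NTR1-expressing U2OS osteosarcoma cells imaged for beta-arrestin GFP spot formation; agonist potency where compounds increase beta-arrestin recruitment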
[13] = biological target: Disintegrin and metalloproteinase domain-containing protein 17 (Homo sapiens, UniProt P78536); assay: inhibition of ADAM17 substrate cleavage – biochemical, quenched FRET substrate, counter-screen for ADAM10 exosite inhibitor project, dose response (AID 743253)
[14] = biological target: G-protein coupled receptor 183 (Homo sapiens, UniProt P32249); assay: SAR confirmation of small molecule antagonists of the EBI2 receptor via a luminescent beta-arrestin assa.; format: functional
[15] = growth inhibition of yeast DHODH-expressing 3D7 parasites – SYBR Green, dry powder samples, dose response (AID 1159570); format: functional, cell-based;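 further: parasite growth measured after 72 hours of compound exposure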
[16] = toxicity to human HepG2 hepatoma cells – cell-based, plate reader, dry powder samples, cytotoxicity control, dose response (AID 1159569); format: functional;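 further: inhibitor potency with signal falling toward the positive control level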
[17] = Dd2 parasite growth inhibition in erythrocytes – SYBR Green, dry powder samples, set 9, dose response (AID 1159568); format: functional, cell-based
[18] = P. falciparum Dd2 growth inhibitors, dose response, SYBR Green, cherry-picked samples (AID 1159567); format: functional, cell-based
[19] = Dd2 malaria parasite growth inhibition potency – SYBR Green, dry powder samples, dose response (AID 1159566); format: functional, cell-based;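 further: potency for growth inhibition with lower SYBR green DNA signal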
[20] = growth inhibition of PfATP4-mutant resistant parasites – NITD609-resistant line, SYBR Green, dry powder, dose response (AID 1159571); format: functional, cell-based;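 further: parasites synchronized at ring stage by sorbitol before testing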

1-phosphatidylinositol 4,5-bisphosphate phosphodiesterase beta-3, sequence (Q01970 whole entry): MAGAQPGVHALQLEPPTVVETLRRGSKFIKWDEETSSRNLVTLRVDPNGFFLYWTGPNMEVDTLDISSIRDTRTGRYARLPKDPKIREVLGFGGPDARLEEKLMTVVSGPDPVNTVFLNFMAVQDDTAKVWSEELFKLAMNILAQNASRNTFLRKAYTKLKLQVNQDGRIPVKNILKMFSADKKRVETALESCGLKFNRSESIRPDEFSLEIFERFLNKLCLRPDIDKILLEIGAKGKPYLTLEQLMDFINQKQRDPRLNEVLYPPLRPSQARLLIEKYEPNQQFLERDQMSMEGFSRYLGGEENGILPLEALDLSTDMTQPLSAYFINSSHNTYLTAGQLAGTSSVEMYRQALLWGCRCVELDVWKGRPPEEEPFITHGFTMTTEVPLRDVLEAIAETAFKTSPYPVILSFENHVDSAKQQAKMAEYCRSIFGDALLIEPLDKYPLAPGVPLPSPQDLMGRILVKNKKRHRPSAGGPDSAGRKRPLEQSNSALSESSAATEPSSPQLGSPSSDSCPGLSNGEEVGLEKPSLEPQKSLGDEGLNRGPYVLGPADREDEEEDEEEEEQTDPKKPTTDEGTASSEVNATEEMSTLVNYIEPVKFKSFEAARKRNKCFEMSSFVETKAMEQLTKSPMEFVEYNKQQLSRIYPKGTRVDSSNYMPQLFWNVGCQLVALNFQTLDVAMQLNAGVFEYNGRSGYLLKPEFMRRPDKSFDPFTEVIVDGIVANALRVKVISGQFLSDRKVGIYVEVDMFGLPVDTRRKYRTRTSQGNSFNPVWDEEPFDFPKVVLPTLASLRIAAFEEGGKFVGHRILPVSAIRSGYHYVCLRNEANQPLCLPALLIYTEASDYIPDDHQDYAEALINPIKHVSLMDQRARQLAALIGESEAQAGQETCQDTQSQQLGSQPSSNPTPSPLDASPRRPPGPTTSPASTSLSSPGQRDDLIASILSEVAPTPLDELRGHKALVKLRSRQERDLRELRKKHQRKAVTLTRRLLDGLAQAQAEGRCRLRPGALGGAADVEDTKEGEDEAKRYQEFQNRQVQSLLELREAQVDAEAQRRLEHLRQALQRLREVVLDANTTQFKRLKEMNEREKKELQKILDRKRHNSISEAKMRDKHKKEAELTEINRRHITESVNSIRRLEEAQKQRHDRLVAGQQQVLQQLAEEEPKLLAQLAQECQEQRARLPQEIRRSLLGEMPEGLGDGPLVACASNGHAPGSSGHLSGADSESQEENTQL
G-protein coupled receptor 183, sequence (P32249 whole entry): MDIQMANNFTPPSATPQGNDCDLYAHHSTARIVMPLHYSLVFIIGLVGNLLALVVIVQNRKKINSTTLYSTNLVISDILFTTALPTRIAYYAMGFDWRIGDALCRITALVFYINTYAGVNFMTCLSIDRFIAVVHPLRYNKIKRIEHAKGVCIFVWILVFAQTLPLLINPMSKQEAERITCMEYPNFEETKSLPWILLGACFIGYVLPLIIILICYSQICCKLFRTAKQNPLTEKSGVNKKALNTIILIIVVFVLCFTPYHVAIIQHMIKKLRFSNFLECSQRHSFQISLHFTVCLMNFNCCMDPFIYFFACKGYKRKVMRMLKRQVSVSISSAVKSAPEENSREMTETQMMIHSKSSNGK
1-phosphatidylinositol 4,5-bisphosphate phosphodiesterase gamma-1, sequence (P19174 whole entry): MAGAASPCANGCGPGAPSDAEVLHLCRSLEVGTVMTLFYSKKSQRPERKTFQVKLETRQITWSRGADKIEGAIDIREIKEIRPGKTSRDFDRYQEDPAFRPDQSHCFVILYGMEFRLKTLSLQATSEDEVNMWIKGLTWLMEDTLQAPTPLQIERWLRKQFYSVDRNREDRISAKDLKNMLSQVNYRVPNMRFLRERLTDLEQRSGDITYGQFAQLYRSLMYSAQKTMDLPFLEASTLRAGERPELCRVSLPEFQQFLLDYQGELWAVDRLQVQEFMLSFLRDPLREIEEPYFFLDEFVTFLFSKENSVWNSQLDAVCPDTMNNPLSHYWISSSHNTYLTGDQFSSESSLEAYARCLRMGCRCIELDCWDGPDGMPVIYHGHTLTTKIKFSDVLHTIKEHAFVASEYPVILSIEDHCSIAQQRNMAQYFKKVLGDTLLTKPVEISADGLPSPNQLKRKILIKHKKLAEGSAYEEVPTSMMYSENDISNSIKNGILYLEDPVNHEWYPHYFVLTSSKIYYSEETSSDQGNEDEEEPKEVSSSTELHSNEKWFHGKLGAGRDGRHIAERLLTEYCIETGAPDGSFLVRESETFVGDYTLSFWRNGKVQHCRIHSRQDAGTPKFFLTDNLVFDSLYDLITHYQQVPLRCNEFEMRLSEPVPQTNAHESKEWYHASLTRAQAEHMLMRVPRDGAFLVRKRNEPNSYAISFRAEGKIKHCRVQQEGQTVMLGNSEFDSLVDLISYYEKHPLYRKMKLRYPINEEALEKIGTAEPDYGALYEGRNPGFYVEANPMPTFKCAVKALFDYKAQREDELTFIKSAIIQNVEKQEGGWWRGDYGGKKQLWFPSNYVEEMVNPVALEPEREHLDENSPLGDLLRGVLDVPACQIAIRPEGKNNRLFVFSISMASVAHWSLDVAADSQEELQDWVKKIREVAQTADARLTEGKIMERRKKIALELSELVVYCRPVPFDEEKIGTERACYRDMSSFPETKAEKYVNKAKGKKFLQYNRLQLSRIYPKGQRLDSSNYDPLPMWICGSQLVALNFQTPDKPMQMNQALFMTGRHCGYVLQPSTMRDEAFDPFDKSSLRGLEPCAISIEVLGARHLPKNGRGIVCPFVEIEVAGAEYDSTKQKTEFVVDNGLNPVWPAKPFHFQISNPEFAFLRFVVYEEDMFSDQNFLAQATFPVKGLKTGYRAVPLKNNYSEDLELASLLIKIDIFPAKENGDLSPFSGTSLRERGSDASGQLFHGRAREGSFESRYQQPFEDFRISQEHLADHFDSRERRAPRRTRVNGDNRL
Neurotensin receptor type 1, sequence (P30989 whole entry, the tested form may be a part): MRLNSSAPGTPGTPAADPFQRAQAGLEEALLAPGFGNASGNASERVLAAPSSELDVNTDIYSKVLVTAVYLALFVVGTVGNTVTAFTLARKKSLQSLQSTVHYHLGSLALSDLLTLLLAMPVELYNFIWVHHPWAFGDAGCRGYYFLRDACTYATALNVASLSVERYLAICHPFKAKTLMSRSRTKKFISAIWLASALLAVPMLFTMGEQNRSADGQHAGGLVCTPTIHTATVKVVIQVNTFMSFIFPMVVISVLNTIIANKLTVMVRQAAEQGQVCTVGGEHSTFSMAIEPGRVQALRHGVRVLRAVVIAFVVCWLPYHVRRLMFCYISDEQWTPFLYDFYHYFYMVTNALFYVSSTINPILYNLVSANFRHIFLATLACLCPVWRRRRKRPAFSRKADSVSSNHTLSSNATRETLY
Disintegrin and metalloproteinase domain-containing protein 17, sequence (P78536 whole entry, the tested form may be a part): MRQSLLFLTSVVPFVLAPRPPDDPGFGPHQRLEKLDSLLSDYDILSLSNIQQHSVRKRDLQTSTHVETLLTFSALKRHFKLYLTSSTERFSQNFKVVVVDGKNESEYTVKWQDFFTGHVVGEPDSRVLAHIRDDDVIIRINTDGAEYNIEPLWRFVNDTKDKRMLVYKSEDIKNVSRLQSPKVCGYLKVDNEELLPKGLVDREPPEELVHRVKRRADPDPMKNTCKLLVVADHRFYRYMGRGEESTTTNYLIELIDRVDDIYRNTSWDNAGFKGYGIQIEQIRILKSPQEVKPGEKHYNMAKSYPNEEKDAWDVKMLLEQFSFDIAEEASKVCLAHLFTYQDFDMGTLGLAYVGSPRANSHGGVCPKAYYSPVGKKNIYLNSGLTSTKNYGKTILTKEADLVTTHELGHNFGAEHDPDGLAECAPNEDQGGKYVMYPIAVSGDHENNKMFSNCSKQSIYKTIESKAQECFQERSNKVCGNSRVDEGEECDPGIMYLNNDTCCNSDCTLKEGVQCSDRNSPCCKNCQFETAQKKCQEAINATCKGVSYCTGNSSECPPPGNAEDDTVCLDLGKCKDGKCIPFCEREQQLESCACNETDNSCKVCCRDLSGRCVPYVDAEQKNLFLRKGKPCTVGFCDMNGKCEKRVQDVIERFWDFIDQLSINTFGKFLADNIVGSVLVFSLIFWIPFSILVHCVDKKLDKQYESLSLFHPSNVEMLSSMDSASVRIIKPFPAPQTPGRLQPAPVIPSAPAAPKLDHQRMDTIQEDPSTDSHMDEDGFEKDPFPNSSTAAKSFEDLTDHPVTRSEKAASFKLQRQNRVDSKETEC

IC50 [1]: > 122 µM (inactive)
IC50 [2]: > 122 µM (inactive)
Compound: CC[C@H]1C=C[C@@H](C(=O)NS(=O)(=O)c2ccc(C)cc2)N(C(C)=O)C1

IC50 [11]: > 100 µM (active)
Compound: CCC(Sc1nc(O)cc(-c2ccccc2)n1)C(=O)O (stereo not drawn)

EC50 [12]: 7.59 µM (active)
IC50 [13]: > 69.5 µM (inactive)
Compound: Cc1ccc(C(=O)Nc2nnc(NC(=S)Nc3ccccc3)s2)cc1

IC50 [14]: 0.0125 µM (active)
Compound: O=C(/C=C/c1ccc(F)cc1)N1CCN(S(=O)(=O)c2ccccc2)CC1

More lines, now with the values behind:

Compound: Cc1cc(C(=O)NNC(=S)NCC(C)C)cs1
IC50 [1]: > 122 µM (inactive)
IC50 [2]: > 122 µM (inactive)

Compound: CCCCCCCCCCCCCCCC(=O)OCC=C(C)C=CC=C(C)C=CC1=C(C)CCCC1(C)C
IC50 [3]: > 20 µM (inactive)
IC50 [4]: > 20 µM (inactive)
IC50 [5]: > 20 µM (inactive)
IC50 [6]: > 20 µM (inactive)
IC50 [7]: > 20 µM (inactive)
IC50 [8]: > 20 µM (inactive)
IC50 [9]: > 20 µM (inactive)
IC50 [10]: > 20 µM (inactive)

Compound: O=C(/C=C/c1ccc(Br)cc1)N1CCN(S(=O)(=O)c2ccc(Br)cc2)CC1
IC50 [14]: 0.00166 µM (active)

Compound: CCCNC(=O)N1[C@H](C#N)[C@H](c2ccc(C3=CCCCC3)cc2)[C@@H]1CO
AC50 [15]: 3.39 µM (active)
AC50 [16]: 0.601 µM (active)
AC50 [17]: 0.355 µM (active)
AC50 [18]: < 0.3 µM (active)
AC50 [19]: 0.0228 µM (active)
AC50 [20]: 0.0853 µM (active)
